Assay results from patent publication US20110218188A1, “SUBSTITUTED (PYRIDYL)-AZINYLAMINE DERIVATIVES AS FUNGICIDES” (priority 2008, published 2011).
Marks after values point to notes of the source that are not given here.

Assay: Measurement of logP values by HPLC on reversed phase columns (EEC directive 79/831 Annex V.A8)
Format: physicochemical

Compound	logP (pH 2.7)	other results
CC(=NOC1CCCC1)c1cc(-c2ncnc(Nc3cccc(Cl)c3)n2)ccn1 (mixture of isomers) [Example B38]	5.79	
CCON=C(C)c1cc(-c2ncnc(Nc3cccc(Cl)c3)n2)ccn1 (mixture of isomers) [B31]	4.7	
CCCCCN(C)C(=O)c1cc(-c2ncnc(Nc3cccc(Cl)c3)n2)ccn1 [Example B161]	3.89	
CC1CCCN1C(=O)c1cc(-c2ncnc(Nc3cccc(Cl)c3)n2)ccn1 (centres unmarked) [Example B152]	3.23	
CC(C)N(C)C(=O)c1cc(-c2ncnc(Nc3cccc(Cl)c3)n2)ccn1 [Example B158]	2.96	
CCN(CC)C(=O)c1cc(-c2ncnc(Nc3cccc(C(F)(F)F)c3)n2)ccn1 [Example B346]	3.23	
CN(C)C(=O)c1cc(-c2ncnc(Nc3ccc(F)c(C(F)F)c3)n2)ccn1 [Example B393]	2.25	
CCCN(C)C(=O)c1cc(-c2ncnc(Nc3ccc(F)c(Cl)c3)n2)ccn1 [Example B203]	3.13	
COCc1cccc(Nc2ncnc(-c3ccnc(C(=O)N(C)C(C)C)c3)n2)c1 [Example B246]	2.42	
CC1(C)CCCN(C(=O)c2cc(-c3ncnc(Nc4cccc(Cl)c4)n3)ccn2)C1 [Example B147]	3.83	
CN(CC(F)F)C(=O)c1cc(-c2ncnc(Nc3cccc(C(F)F)c3)n2)ccn1 [Example B371]	2.75	
Cc1ccc(Nc2ncnc(-c3ccnc(C(=O)NCC4CC4)c3)n2)cc1Cl [B233]	4.16	
CON(C)C(=O)c1cc(-c2ncnc(Nc3cccc(C(F)F)c3)n2)ccn1 [B412]	2.34	
O=C(c1cc(-c2ccnc(Nc3ccnc(Cl)c3)n2)ccn1)N1CCCCC1 [Example A5]	2.23	
CC(=NOCC1CC1)c1cc(-c2ncnc(Nc3cccc(Cl)c3)n2)ccn1 (mixture of isomers) [Example B34]	4.94	
O=C(c1cc(-c2ncnc(Nc3cccc(Cl)c3)n2)ccn1)N1CCCCCC1 [Example B138]	3.46	
CCCC(C)NC(=O)c1cc(-c2ncnc(Nc3cccc(Cl)c3)n2)ccn1 (centres unmarked) [Example B118]	4.54	
CN(CCC#N)C(=O)c1cc(-c2ncnc(Nc3cccc(OC(F)(F)F)c3)n2)ccn1 [Example B262]	2.8	
CC(C)N(CCO)C(=O)c1cc(-c2ncnc(Nc3cccc(Cl)c3)n2)ccn1 [Example B180]	2.45	
CCN(C)C(=O)c1cc(Nc2nccc(-c3ccnc(C(=O)N(C)CC)c3)n2)ccn1 [Example A19, N-ethyl-4-[2-({2-[ethyl(methyl)carbamoyl]pyridin-4-yl}amino)pyrimidin-4-yl]-N-methylpyridine-2-carboxamide]		chromatographic logP (pH 2.7): 1.19
COc1cccc(Nc2ncnc(-c3ccnc(C(=O)N(C)CC4CC4)c3)n2)c1F [Example B275]	2.7	
CN(CCC#N)C(=O)c1cc(-c2ncnc(Nc3ccc(F)c(F)c3)n2)ccn1 [Example B384]	2.35	
CN(C)C(=O)c1cc(-c2ncnc(Nc3ccsc3)n2)ccn1 [Example C19]	1.86	
CCN(C)C(=S)c1cc(-c2ncnc(Nc3cccc(S(F)(F)(F)(F)F)c3)n2)ccn1 [Example B253, N-ethyl-N-methyl-4-(4-{[3-(pentafluoro-lambda^6-sulfanyl)phenyl]amino}-1,3,5-triazin-2-yl)pyridine-2-carbothioamide]		chromatographic logP (pH 2.7): 3.57
COCc1cccc(Nc2ncnc(-c3ccnc(C(=O)N(C)CCC#N)c3)n2)c1 [Example B239]	1.94	
C#CC(C)ON=C(C)c1cc(-c2ncnc(Nc3cccc(Cl)c3)n2)ccn1 (mixture of isomers) [B30]	4.47	

Compound	logP (pH 2.7)	other results
CN(CC1CC1)C(=O)c1cc(-c2ncnc(Nc3ccc(Cl)c(C(F)F)c3)n2)ccn1 [Example B390]	3.31	
CN(CC1CCCO1)C(=O)c1cc(-c2ncnc(Nc3cccc(Cl)c3)n2)ccn1 (centres unmarked) [Example B160]	2.76	
CCCN(C)C(=O)c1cc(-c2ncnc(Nc3ccc(C)c(Cl)c3)n2)ccn1 [Example B374]	3.42	
O=C(c1cc(-c2ncnc(Nc3cccc(Cl)c3)n2)ccn1)N1CC=CCC1 [Example B153]	3.11	
COc1cccc(Nc2ncnc(-c3ccnc(C(=O)N(C)CCC#N)c3)n2)c1 [Example B272]	2.11	
CN(C)C(=O)c1cccc(-c2ccnc(Nc3ccnc(Cl)c3)n2)n1 [Example A34]		logP (pH 2.3): 1.96^[b]
CCN(CC)C(=O)c1cc(-c2ncnc(Nc3cccc(OC(F)(F)F)c3)n2)ccn1 [Example B263]	3.39	
NC(=O)c1cc(-c2ncnc(Nc3cccc(F)c3)n2)ccn1 [B324]	2.09	
CC(C)CCN(C)C(=O)c1cc(-c2ncnc(Nc3cccc(Cl)c3)n2)ccn1 [Example B146]	3.87	
O=C(NCCCCN1CCCC1=O)c1cc(-c2ncnc(Nc3cccc(Cl)c3)n2)ccn1 [B96]	2.73	
CN(C)C(=O)c1cc(-c2ncnc(Nc3cccc(OC(F)F)c3)n2)ccn1 [Example B300]	2.25	
COCCNC(=O)c1cc(-c2ncnc(Nc3ccc(F)c(Cl)c3)n2)ccn1 [B193]	3.08	
CC(=O)Nc1cccc(Nc2ncnc(-c3ccnc(C(=O)N(C)C)c3)n2)c1 [Example B307]	1.4	
CC(=O)N(c1ccccc1)c1ncnc(-c2ccnc(C(=S)N(C)CC3CC3)c2)n1 [Example B344, N-(4-{2-[(cyclopropylmethyl)(methyl)carbamothioyl]pyridin-4-yl}-1,3,5-triazin-2-yl)-N-phenylacetamide]		chromatographic logP (pH 2.7): 3.02
CCCN(C)C(=O)c1cc(-c2ncnc(Nc3cccc(Cl)c3)n2)ccn1 [Example B132]	3.06	
CO/N=C(\C)c1cc(-c2ncnc(Nc3cccc(Cl)c3)n2)ccn1 [Example B27, N-(3-chlorophenyl)-4-{2-[(1E)-N-methoxyethanimidoyl]pyridin-4-yl}-1,3,5-triazin-2-amine]		chromatographic logP (pH 2.7): 4.23
CN(C(=O)c1cc(-c2ncnc(Nc3cccc(Cl)c3)n2)ccn1)C1CCCCC1 [Example B144]	3.89	
CCN(CC)C(=O)c1cc(-c2ncnc(Nc3cccc(C#N)c3)n2)ccn1 [Example B292]	2.45	
CCN(C)C(=O)c1cc(-c2ncnc(Nc3cccc(OC(F)(F)C(F)F)c3)n2)ccn1 [Example B260]	2.92	
COC(=O)c1cc(-c2ncnc(Nc3ccc(OC)c(F)c3)n2)ccn1 [B418]	2.37	
CCN(C)C(=S)c1cc(-c2ncnc(Nc3cccc(C(F)F)c3)n2)ccn1 [Example B341]	2.94	
CC(C)NC(=O)c1cc(-c2ncnc(Nc3cccc(Cl)c3)n2)ccn1 [Example B91]	3.62	
COCC(C)NC(=O)c1cc(-c2ncnc(Nc3ccc(F)c(Cl)c3)n2)ccn1 (centres unmarked) [B191]	3.48	
CC(C)NC(=O)c1cc(-c2ncnc(Nc3ccc(F)c(Cl)c3)n2)ccn1 [B196]	3.73	
CC(=NNc1ncc(C(F)(F)F)cc1Cl)c1cc(-c2ncnc(Nc3cccc(Cl)c3)n2)ccn1 [B90]	5.46	
CCOc1cccc(Nc2ncnc(-c3ccnc(C(=S)N(C)CC)c3)n2)c1 [Example B255]	3.15	

Compound	logP (pH 2.7)	other results
CCN(C)C(=O)c1cc(-c2ncnc(Nc3ccc(F)c(Cl)c3)n2)ccn1 [Example B207]	2.75	
CC(=NOCc1c(Cl)cccc1Cl)c1cc(-c2ncnc(Nc3cccc(Cl)c3)n2)ccn1 (mixture of isomers) [B39]	6.02	
CCCN(C)C(=O)c1cc(-c2ncnc(Nc3cccc(OC)c3)n2)ccn1 [Example B274]	2.61	
CC(C)CN(C)C(=O)c1cc(-c2ncnc(Nc3cccc(Cl)c3)n2)ccn1 [Example B151]	3.42	
CC1CCC(C)N1C(=O)c1cc(-c2ncnc(Nc3cccc(Cl)c3)n2)ccn1 (centres unmarked) [Example B141]	3.64	
COCc1cccc(Nc2ncnc(-c3ccnc(C(=S)N(C)CC4CC4)c3)n2)c1 [Example B249]	3.12	
CN(C)C(=O)c1cc(-c2ncnc(Nc3ccc(F)c(Cl)c3)n2)ccn1 [Example B205]	2.47	
CCCCCCN(CCCCCC)C(=O)c1cc(-c2ncnc(Nc3cccc(Cl)c3)n2)ccn1 [B174]	6.69	
CC(=O)Nc1cccc(Nc2ncnc(-c3ccnc(C(=O)N(C)C(C)C)c3)n2)c1 [B309]	1.81	
CCN(CC)C(=S)c1cc(-c2ncnc(Nc3cccc(F)c3)n2)ccn1 [Example B11]	3.31	
CCC(C)NC(=O)c1cc(-c2ncnc(Nc3cccc(Cl)c3)n2)ccn1 (centres unmarked) [Example B94]	4.04	
O=C(NC1COC1)c1cc(-c2ncnc(Nc3cccc(Cl)c3)n2)ccn1 [B112]	2.6	
CSc1cccc(Nc2ncnc(-c3ccnc(C(=O)NCC4CC4)c3)n2)c1 [B219]	3.64	
CC(C)N(C)C(=S)c1cc(-c2ncnc(Nc3ccc(F)c(C(F)F)c3)n2)ccn1 [Example B329]	3.29	
C=CCON=C(C)c1cc(-c2ncnc(Nc3cccc(Cl)c3)n2)ccn1 (mixture of isomers) [Example B29]	4.7	
CC(C)N(C)C(=O)c1cc(-c2ncnc(Nc3cccc(OC(F)(F)F)c3)n2)ccn1 [B269]	3.29	
CCN(C)C(=O)c1cc(-c2ncnc(Nc3ccsc3)n2)ccn1 [Example C17]	2.13	
CCN(C)C(=S)c1cc(-c2ncnc(Nc3cccc(OC(F)F)c3)n2)ccn1 [B424]	3.06	
CC(=NOCc1ccccc1)c1cc(-c2ncnc(Nc3cccc(Cl)c3)n2)ccn1 (mixture of isomers) [B50]	5.18	
O=C(c1cc(-c2ncnc(Nc3cccc(Cl)c3)n2)ccn1)N1CCC(O)CC1 [Example B173]	2.04	
C#CCN(c1ccccc1)c1ncnc(-c2ccnc(C(=O)N(C)CC3CC3)c2)n1 [Example B402, N-(cyclopropylmethyl)-N-methyl-4-{4-[phenyl(prop-2-yn-1-yl)amino]-1,3,5-triazin-2-yl}pyridine-2-carboxamide]		chromatographic logP (pH 2.7): 2.98
O=C(c1cc(-c2ncnc(Nc3ccc(F)c(Cl)c3)n2)ccn1)N1CCCC1 [B190]	3	
COCCN(C)C(=O)c1cc(-c2ncnc(Nc3cccc(COC)c3)n2)ccn1 [Example B247]	2.05	
COCCN(C)C(=O)c1cc(-c2ncnc(Nc3cccc(OC)c3)n2)ccn1 [Example B280]	2.14	
CCN(C)C(=O)c1cc(-c2ncnc(Nc3cccc(OC(F)(F)F)c3)n2)ccn1 [Example B268]	3	
